Test results published in patent publication US9428507B2, “Compounds for the treatment of malaria” (The Broad Institute, Inc., priority 2013, dated 2016).
Where two headings read alike, the source gives them in different places.

Columns and labels:
P. falciparum K1 = test: In vitro P. falciparum blood-stage assay, strain K1; assay type: cell-based; conditions: Plasmodium falciparum
Method: (§1) Strains of Plasmodium falciparum (Dd2, 3D7, D6, K1, NF54, V1/3, HB3, 7G8, FCB, TM90C2B) were obtained from Malaria Research and Reference Reagent Resource Center (MR4). P. falciparum isolates were maintained with O-positive human blood in an atmosphere of 93% N2, 4% CO2, 3% O2 at 37° C. in complete culturing medium (10.4 g/L RPMI 1640, 5.94 g/L HEPES, 5 g/L albumax II, 50 mg/L hypoxanthine, 2.1 g/L sodium bicarbonate, 10% human serum and 43 mg/L gentamicin). Parasites were cultured in medium until the parasitemia reached 3-8%. Parasitemia was determined by checking at least 500 red blood cells from a Giemsa-stained blood smear. For the compound screening, a parasite suspension at 2.0% parasitemia and 2.0% hematocrit was created with medium. 25 μl of medium was dispensed into 384-well, black, clear-bottom plates. 100 nl of compounds in DMSO was transferred into the assay plates along with control compound (mefloquine). Next, 25 μl of the parasite suspension in medium was dispensed into the assay plates such that the final parasitemia was 1% and the final hematocrit was 1%. The assay plates were incubated for 72 hours at 37° C. […] The assay plates were read with 505 dichroic mirrors with 485-nm excitation and 530-nm emission settings.

P. falciparum HB3 = test: In vitro P. falciparum blood-stage assay, strain HB3; assay type: cell-based; conditions: Plasmodium falciparum
Method: as §1

[1] = tested on: P. berghei (ANKA GFP-luc) sporozoites; test: In vivo P. berghei liver-stage assay; parameters: species or system CD-1 mice; conditions: orally at 50 mg/kg two hours after sporozoite inoculation
Method: CD-1 mice (n=4 per experimental group; female; 6-7-week-old; 20-24 g) were inoculated intravenously with 1×10^5 freshly isolated P. berghei(ANKA GFP-luc) sporozoites intravenously, and compounds were administered orally at 50 mg/kg two hours later. Bioluminescence signals from the transgenic parasites were monitored by the In vivo Imaging System (IVIS 100, Xenogen; Caliper Life Sciences). Animals with parasitemia exceeding 20% were euthanized.

P. falciparum FCB = test: In vitro P. falciparum blood-stage assay, strain FCB; assay type: cell-based; conditions: Plasmodium falciparum
Method: as §1

P. falciparum Dd2 = test: In vitro P. falciparum blood-stage assay, strain Dd2; assay type: cell-based; conditions: Plasmodium falciparum
Method: as §1

P. falciparum D6 = test: In vitro P. falciparum blood-stage assay, strain D6; assay type: cell-based; conditions: Plasmodium falciparum
Method: as §1

[2] = tested on: P. berghei (ANKA GFP-luc) blood stage parasites; test: In vivo P. berghei blood-stage assay; parameters: species or system CD-1 mice; conditions: 50 mg/kg 4x, p.o., T/E
Method: CD-1 mice (n=4 per experimental group; female; 6-7-week-old; 20-24 g) were inoculated with 1×10^6 P. berghei (ANKA GFP-luc) blood stage parasites intravenously 24 hours before treatment and compounds were administered orally (at 0 hour). Parasitemia was monitored by the In vivo Imaging System (IVIS 100, Xenogen; Caliper Life Sciences) to acquire the bioluminescence signal. In addition, blood smear samples were obtained from each mouse on day 4 after inoculation, stained with Giemsa, and viewed under a microscope for visual detection of blood parasitemia. Animals with parasitemia exceeding 20% were euthanized.

P. cynomolgi = test: In vitro P. cynomolgi liver stage assay in primary rhesus monkey hepatocytes; assay type: cell-based; conditions: Plasmodium cynomolgi, Hepatocyte, in Macaca mulatta
Method: An in vitro P. cynomolgi liver stage assay was performed as described in Zeeman et al. Antimicrobial Agents and Chemotherapy, 2014, 58:1586-1595. 96-well plates are seeded with freshly isolated or thawed cryopreserved stocks of primary rhesus monkey hepatocytes one or two days before infection with 5×10^4 freshly dissected P. cynomolgisporozoites per well. After 2-3 h of sporozoite invasion into the hepatocytes, culture medium is exchanged for culture medium containing appropriate compound dilutions. Initially, compounds are tested in duplicate in 3 dilutions: 0.1, 1 and 10 μM. Plates are incubated for 6 days with medium exchange (including compound dilutions) every other day. Plates are fixed in methanol and parasites are stained with rabbit anti-PcyHSP70 antiserum in the presence of DAPI to stain the nuclei. Plates are automatically counted in a high-content imager (Operetta®) and small parasites (hypnozoites, s.f.) and large schizonts (I.f.) are recorded, as well as number of hepatocytes as a measure for cytotoxic effects of the compounds. Controls include uninfected hepatocytes, sporozoite infected wells without compound and infected wells with primaquine and atovaquone. When activity is recorded and reported, a more extensive dilution curve can be evaluated: a 7-point 3-fold dilution series from days 0-6.

P. falciparum 3D7 = test: In vitro P. falciparum blood-stage assay, strain 3D7; assay type: cell-based; conditions: Plasmodium falciparum
Method: as §1

[3] = tested on: P. falciparum 3D7 gametocytes; test: P. falciparum gametocyte viability assay; assay type: cell-based; conditions: Plasmodium falciparum, 72 hours, Cell-titer glo, read-out: IC50 erythocytic stage (P. falciparum) sexual (IV & V)
Method: P. falciparum 3D7 stage Ill-V gametocytes were isolated by discontinuous Percoll gradient centrifugation of parasite cultures treated with 50 mM N-acetyl-D-glucosamine for 3 days to kill asexual parasites. Gametocytes (1.0×10^5) were seeded in 96-well plates and incubated with compounds for 72 hours. In vitro anti-gametocyte activity was measured using Cell-titer glo (Promega).

[4] = tested on: P. berghei (ANKA GFP-luc); test: In vitro P. berghei liver-stage assay in HepG2 cells; assay type: cell-based; conditions: Plasmodium berghei, 48 hour incubation, read-out: IC50 exo-erythrocytic stage P. berghei
Method: In vitro P. berghei liver-stage assay HepG2 cells were maintained in DMEM, 10% (vol/vol) FBS (Sigma), and 1% (vol/vol) antibiotic-antimycotic in a standard tissue culture incubator (37° C., 5% CO2). P. berghei (ANKA GFP-luc) infected Anopheles stephensi mosquitoes were obtained from the New York University Langone Medical Center Insectary (New York). For assays, ˜17,500 HepG2 cells per well were added to a 384-well microtiter plate in duplicate. After 18-24 h at 37° C. the media was exchanged and compounds were added. After 1 hour, parasites obtained from freshly dissected mosquitoes were added to the plates (4,000 parasites per well), the plates were spun for 10 min at 1,000 rpm, and then the plates were incubated at 37° C. The final assay volume was 30 μL. After a 48 hour incubation at 37° C., Bright-Glo (Promega) was added to the parasite plate to measure relative luminescence. The relative signal intensity of each plate was evaluated with an EnVision (PerkinElmer) system.

## COc1ccc2c3c([nH]c2c1)[C@H](CO)N(C(C)=O)CC31CCN(C(=O)Nc2ccccc2F)CC1 [Compound 15, (R)-2′-acetyl-N-(2-fluorophenyl)-1′-(hydroxymethyl)-7′-methoxy-1′,2′,3′,9′-tetrahydrospiro [piperidine-4,4′-pyrido[3,4-b]indole]-1-carboxamide]
P. falciparum K1
  IC50: 91 nM
P. falciparum HB3
  IC50: 147 nM
[1]
  Parasitemia of treated animals (untreated controls: systemic parasitemia by day four): remained parasite free
[1]; bioluminescence
  Inhibition of the liver stage of P. berghei in vivo (FIG. 1): inhibit the liver stage
P. falciparum FCB
  IC50: 130 nM
P. falciparum Dd2
  IC50: 73 nM
P. falciparum D6
  IC50: 70 nM
[2]
  % Activity: 94.20%
  % of control: 5.80%
  Avg. Mouse survival: 6.3 days
[2]; mouse M1
  Mouse survival in days, M1: 6 days
  Parasitized RBC over 100, M1: 3.70
[2]; mouse M2
  Mouse survival in days, M2: 6 days
  Parasitized RBC over 100, M2: 3.20
[2]; mouse M3
  Mouse survival in days, M3: 7 days
  Parasitized RBC over 100, M3: 2.80
P. cynomolgi; large schizonts (l.f.), read-out: IC50 exo-erythrocytic stage P. cynomolgi (l.f)
  IC50: 832 nM
P. cynomolgi; small parasites (hypnozoites, s.f.), read-out: IC50 exo-erythrocytic stage P. cynomolgi (s.f)
  IC50: 344 nM
P. falciparum 3D7
  IC50: 65 nM
[3]
  IC50: 643 nM
[4]
  IC50: 459 nM
